The subject of series [1] is chinese hamster ovary cells (CHO). The experiment in a line: CHO toxicity assay (CCK-8 cell viability). In kind it is cell-based. To be noted: 50% growth inhibition, 24 hours. As to the method:
Cell counting kit-8 (Sigma, CCK-8) assays were performed to assess the effect of compounds on cell viability. The assay is based on the reduction of a water-soluble tetrazolium salt (WST-8) by cellular dehydrogenases to a formazan dye which can be detected spectroscopically. 96-well plates were seeded with chinese hamster ovary cells (CHO) cells at 7×10^3 cells per well in Dulbecco's modified Eagle's medium nutrient mixture F-12 Ham (containing 15 mM HEPES, NaHCO3, pyridoxine and L-glutamine) supplemented with 10% fetal bovine serum (FBS). The following day serial dilutions of compounds (dissolved and diluted in DMSO) were added to the cells in duplicates. Control included an ‘untreated’ control where cells were grown in the presence of 1% DMSO and a medium only control (plus 1% DMSO). After 24 hours CCK-8 reagent (10 μl) was added to each well and cell viability was assessed by measuring the absorbance at a wavelength of 450 nm after 2.5-3 hours. Only living cells can reduce the tetrazolium salts into coloured formazan products. Results were expressed as 50% growth inhibition (TD50) values compared to ‘untreated’ control.
The therapeutic index was calculated as the ratio of the dose that produces growth inhibition in 50% of CHO cells divided by the dose where 50% of S. aureus growth is inhibited.

Series [2] has as its system human hepatocyte cell line (HepG2). Kind of series: HepG2 cell inhibition assay (CCK-8 cell viability). To be noted: 50% growth inhibition, 24 hours. In kind it is cell-based. As to the method:
Cell counting kit-8 (Sigma, CCK-8) assays were performed to assess the effect of compounds on cell viability. The assay is based on the reduction of a water-soluble tetrazolium salt (WST-8) by cellular dehydrogenases to a formazan dye which can be detected spectroscopically. 96-well plates were seeded with the human hepatocyte cell line (HepG2) at approximately 8×10^3 cells per well in Minimum Essential Medium Eagle (EMEM) with Earle's salts and sodium bicarbonate supplemented with 10% heat-inactivated foetal bovine serum 2 mM glutamine and 1% non-essential amino acids (NEAA). The following day serial dilutions of compounds (dissolved and diluted in DMSO) were added to the cells in duplicates. Control included an ‘untreated’ control where cells were grown in the presence of 1% DMSO and a medium only control (plus 1% DMSO). After 24 hours CCK-8 reagent (10 μl) was added to each well and cell viability was assessed by measuring the absorbance at a wavelength of 450 nm after 2-3 h hours. Only living cells can reduce the tetrazolium salts into coloured formazan products. Results were expressed as 50% growth inhibition (TD50) values compared to ‘untreated’ control. The therapeutic index was calculated as the ratio of the dose that produces growth inhibition in 50% of HepG2 cells divided by the dose where 50% of S. aureus or E. coli growth is inhibited.

Series [3] relates to S. aureus NCTC 8325 biofilm. The experiment in a line: Preformed S. aureus biofilm assay (crystal violet). Type of series: cell-based, Staphylococcus aureus. To be noted: S. aureus NCTC 8325, 24 hours preformed biofilm, 24 hours exposure. Here is the method:
The effect of a test compound on the formation of a S. aureus biofilm may be assessed using a biofilm prevention assay as described by Merritt et al. Current Protocols in Microbiology, 2011, 1B.1.1-1B1.18 with slight modifications. Briefly, S. aureus NCTC 8325, MRSA (RPAH18) and MRSA (MW2) are grown overnight in Tryptic soy broth (TSB) and diluted to between 1/50 and 1/100 before 150 μL is added to the wells of a flat bottomed 96-well plate. Three microliters of auranofin at the appropriate dilution in DMSO are added to the wells in duplicate. Controls included a serial dilution of lincomycin in ethanol (to assess plate to plate variation), a positive control with bacteria alone in TSB with 2% DMSO and a negative (no bacteria) control with 150 μL TSB containing 2% DMSO. Plates are sealed with AeraSeal™ and incubated at 37° C. for 24 hours. The plates are then washed three times with PBS, dried at 60° C. for 1 hour and stained with crystal violet for 1 hour. The plates are again washed three times with water, dried and scanned prior to the addition of 33% acetic acid to re-solubilize the crystal violet stain bound to the adherent cells. Absorbance is then measured at 595 nm and expressed as a percentage of the bacteria only control.
The effect of a test compound on preformed S. aureus biofilms can also be assessed. Briefly S. aureus NCTC 8325 is plated in 96-well plates as described in above and incubated 37° C. for 24 hours. Biofilms are then washed 3 times with TSB and 150 μL of fresh TSB and 3 μL of auranofin at the appropriate dilution in DMSO was added to the wells in duplicate. Plates are again sealed with AeraSeal™ and reincubated 37° C. for 24 hours. Biofilm is then detected as described above.

Series [4] relates to S. aureus infection of G. mellonella larvae. The experiment in a line: Galleria mellonella model, efficacy after S. aureus infection. To be noted: S. aureus infected larvae. In kind it is in vivo. As to the method: G. mellonella larvae at 5th or 6th instar stage were purchased from a commercial supplier and used within 3 days. Prior to infection larvae were kept at room temperature. Larvae were infected with bacteria (various Gram positive and negative bacteria, including S. aureus, K. pneumoniae, E. coli and P. aeruginosa) using a sterile Hamilton syringe. Bacteria cultures were grown overnight, washed ×3 in PBS and resuspended in PBS. Larvae were wiped with 70% ethanol and 10 μl of bacteria solution (to cause 80% death within 3-4 days) was injected into the bottom right proleg of the larvae. Larvae injected with 10 μl of PBS were used as negative controls. Larvae were then placed in petri dishes (1 dish per condition) containing filter paper at the bottom of the dish at 37° C. After various time points post infection (1-6 h), larvae were taken from the incubator wiped again with 70% ethanol and injected with 10 μl of various concentrations of compound, dissolved in either 5% dimethyl sulfoxide, 5% ethanol or 5% 1-methyl-2-pyrrolidinone into a proleg on the left hand-side. Control larvae received 10 μl of 5% solvent. Ten larvae were injected for each condition. To assess the toxicity of the compound, larvae were injected with various concentrations of compound alone. Larvae were returned to a 37° C. incubator and checked daily. […] Numbers of dead larvae were recorded each day. […]

In a further series the test system is G. mellonella larvae. Kind of series: Galleria mellonella model, toxicity of compound alone. To be noted: uninfected larvae. Type of series: in vivo. Here is the method: G. mellonella larvae at 5th or 6th instar stage were purchased from a commercial supplier and used within 3 days. Prior to infection larvae were kept at room temperature. Larvae were infected with bacteria (various Gram positive and negative bacteria, including S. aureus, K. pneumoniae, E. coli and P. aeruginosa) using a sterile Hamilton syringe. Bacteria cultures were grown overnight, washed ×3 in PBS and resuspended in PBS. Larvae were wiped with 70% ethanol and 10 μl of bacteria solution (to cause 80% death within 3-4 days) was injected into the bottom right proleg of the larvae. Larvae injected with 10 μl of PBS were used as negative controls. Larvae were then placed in petri dishes (1 dish per condition) containing filter paper at the bottom of the dish at 37° C. After various time points post infection (1-6 h), larvae were taken from the incubator wiped again with 70% ethanol and injected with 10 μl of various concentrations of compound, dissolved in either 5% dimethyl sulfoxide, 5% ethanol or 5% 1-methyl-2-pyrrolidinone into a proleg on the left hand-side. Control larvae received 10 μl of 5% solvent. Ten larvae were injected for each condition. To assess the toxicity of the compound, larvae were injected with various concentrations of compound alone. Larvae were returned to a 37° C. incubator and checked daily. Larvae were considered dead when no movement occurred when touched with a blunt pair of forceps. […] Numbers of dead larvae were recorded each day.
Survival Proportions Following Dosing with 10 μl of Compound 8 Solutions of Varying Strengths

Structures are written as SMILES.

For the compound `C[P](C)(C)=[Au][S]c1nc2ccccc2[nH]1` [Compound 1], the “CHO cell TD50” value in series [1] was found to be 3.2 µg/mL. The “HepG2 cell TD50” value in series [2] stood at 4 µg/mL.
On to `COC(=O)[C@H](C[S][Au]=[P](C)(C)C)NC(C)=O` [Compound 2], for which the “effect on preformed S. aureus biofilm” value in series [3] is reported as “disrupted the biofilm”. In series [1], the “CHO cell TD50” value was determined as 6.4 µg/mL. Moreover, the “HepG2 cell TD50” value in series [2] came out at 11 µg/mL.
The like results for `C[P](C)(C)=[Au][S]c1nc2ncccc2o1` [Compound 3] were, in that order, “disrupted the biofilm”, 5.0 µg/mL and 9 µg/mL.
Take `CC(=O)N[C@@H](C[S][Au]=[P](C)(C)C)C(N)=O` [Compound 4]: in series [3], the “effect on preformed S. aureus biofilm” value is recorded as “disrupted the biofilm”. The “HepG2 cell TD50” value in series [2] was 22 µg/mL.
Take `C[P](C)(C)=[Au][S]c1nc2cccnc2[nH]1` [Compound 7]: the “effect on preformed S. aureus biofilm” value in series [3] is listed as “disrupted the biofilm”. Besides, the “HepG2 cell TD50” value in series [2] was found to be 12.5 µg/mL.
As to `CCOC(=O)[C@H](C[S][Au]=[P](C)(C)C)NC(C)=O` [Compound 8], the “effect on preformed S. aureus biofilm” value in series [3] was “disrupted the biofilm”. Further, the mean survival rates entry in series [4] (2 mg/kg (p=0.02)) and in series [4] (4 mg/kg (p=0.04)) was “significantly increased” throughout. In addition, the Survival proportions came out at 100 in the series with G. mellonella larvae (3.75 mg/kg, Day 1); 100 in the series on G. mellonella larvae (3.75 mg/kg, Day 2); 100 in the series on G. mellonella larvae (3.75 mg/kg, Day 3); 100 in the series with G. mellonella larvae (3.75 mg/kg, Day 4); 100 with G. mellonella larvae (7.5 mg/kg, Day 1); 100 in the series on G. mellonella larvae (7.5 mg/kg, Day 2). Besides, the Survival proportions in the series with G. mellonella larvae (7.5 mg/kg, Day 3) worked out at 100; with G. mellonella larvae (7.5 mg/kg, Day 4), 100; with G. mellonella larvae (15 mg/kg, Day 1), 100; in the series on G. mellonella larvae (15 mg/kg, Day 2), 100; in the series on G. mellonella larvae (15 mg/kg, Day 3) it was 100; in the series with G. mellonella larvae (15 mg/kg, Day 4), 100. For the same compound, the Survival proportions with G. mellonella larvae (30 mg/kg, Day 1) is given as 100; in the series on G. mellonella larvae (30 mg/kg, Day 2) it was 90; in the series on G. mellonella larvae (30 mg/kg, Day 3), 90; with G. mellonella larvae (30 mg/kg, Day 4), 90; with G. mellonella larvae (60 mg/kg, Day 1), 100; in the series with G. mellonella larvae (60 mg/kg, Day 2) it was 80. For the same compound, the Survival proportions with G. mellonella larvae (60 mg/kg, Day 3) was 60; in the series with G. mellonella larvae (60 mg/kg, Day 4), 50. Also, the “HepG2 cell TD50” value in series [2] came to 9.5 µg/mL.
On to `C[P](C)(C)=[Au][S]c1ccccc1` [Compound 10], for which the “effect on preformed S. aureus biofilm” value in series [3] is listed as “disrupted the biofilm”. In addition, the “HepG2 cell TD50” value in series [2] was 2 µg/mL.
As for `C[P](C)(C)=[Au][S]c1ccccn1` [Compound 11], the “effect on preformed S. aureus biofilm” value in series [3] was “disrupted the biofilm”. Besides, in series [2], the “HepG2 cell TD50” value was found to be 4.5 µg/mL.
With `C[P](C)(C)=[Au][S]c1ncccn1` [Compound 12], in series [3], the “effect on preformed S. aureus biofilm” value is on record as “disrupted the biofilm”. Besides, in series [2], the “HepG2 cell TD50” value was found to be 4.5 µg/mL.
Regarding `CN1CCC([S][Au]=[P](C)(C)C)CC1` [Compound 13], in series [2], the “HepG2 cell TD50” value was 15 µg/mL.
As for `C[P](C)(C)=[Au][S]c1nc2ncccc2s1` [Compound 14], the “effect on preformed S. aureus biofilm” value in series [3] is reported as “disrupted the biofilm”. Besides, the “HepG2 cell TD50” value in series [2] turned out to be 7 µg/mL.
With `C[P](C)(C)=[Au][S][C@H]1CC[C@H](O)CC1` [Compound 15], the “effect on preformed S. aureus biofilm” value in series [3] is “disrupted the biofilm”. Moreover, in series [2], the “HepG2 cell TD50” value came to 4.5 µg/mL.
In the case of `C[P](C)(C)=[Au][S]C1CCOCC1` [Compound 16], in series [2], the “HepG2 cell TD50” value is 4.5 µg/mL.
On the same count and under the same terms, the result for `CCOC(=O)[C@H](C[Se][Au]=[P](C)(C)C)NC(C)=O` [Compound 18] reads more than 50 µg/mL; that for `C[P](C)(C)=[Au][S]c1cccnc1` [Compound 19], 3 µg/mL.

(Values after US20170226133A1, “Gold (I)-Phosphine Compounds as Anti-Bacterial Agents” (Auspherix Limited, priority 2014, published 2017).)
